“Also recorded” adds a separate entry of the source. Where two headings read alike, the source gives them in different places.
Key:
HO-1 (rat spleen) = biological target: T1, HO-1 (rat spleen) (Rattus norvegicus, UniProt P06762); assay: HO enzymatic activity in rat spleen microsomal fraction (CO formed from methemalbumin, gas chromatography); type: biochemical; details: rat spleen microsomes; average ± standard deviation of replicate experiments; read-out: IC50 HO-1 (rat spleen)/μM
T1 construct: Spleen microsomes were used as a source of HO-1; from tissue; host or cells: spleen microsomal fraction of adult male Sprague-Dawley rats
T1 sequence (P06762 1-289): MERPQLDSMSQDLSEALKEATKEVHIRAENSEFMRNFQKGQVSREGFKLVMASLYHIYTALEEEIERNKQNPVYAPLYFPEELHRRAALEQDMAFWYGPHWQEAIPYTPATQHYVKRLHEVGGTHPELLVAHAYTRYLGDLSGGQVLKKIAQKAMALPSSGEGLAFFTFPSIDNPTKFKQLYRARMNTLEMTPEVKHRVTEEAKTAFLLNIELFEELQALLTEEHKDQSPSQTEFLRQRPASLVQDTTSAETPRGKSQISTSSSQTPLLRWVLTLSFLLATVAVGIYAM

Brc1ccc(CCC2(Cn3ccnc3)OCCO2)cc1.Cl [QC-56, 1-((2-(2-(4-Bromophenyl)ethyl)-1,3-dioxolan-2-yl)methyl)-1H-imidazole hydrochloride]
tolerability (50 mg/kg, multiple administrations): well tolerated
toxicity in combination studies (QC-56 60 mg/kg i.p. 4 cycles, chemotherapy drugs i.p.): No apparent toxicity
tolerability (multiple doses up to 100 mg/kg (intraperitoneal, intravenous), hydrochloride): well tolerated with no apparent signs of toxicity; also recorded: well tolerated
tolerability (repeated doses of 30 and 60 mg/kg i.p., SCID mice, hydrochloride): well tolerated at repeated doses of 30 and 60 mg/kg with minor changes in body weights with no apparent toxicity; also recorded: well tolerated
toxic single dose (single intraperitoneal dose, SCID mice): > 100 mg/kg
IC50 (HO-1 (rat spleen)): 1.9 ± 0.2 µM
